Article PMC4359537, “Pharmacological characterisation of murine α4β1δ GABAA receptors expressed in Xenopus oocytes” (BMC Neuroscience, 2015)
Values joined by “and” are separate entries in the source; they are usually repeats but may differ in a detail not shown here. Equal values may be shown once. “Also recorded” adds a separate entry of the source. Read-outs that look alike come from different tables or passages of the source.

Key:
α4β1δ receptors = molecular target: T1, α4β1δ receptors (UniProt P18506+P50571+Q9D6F4); experiment: Two-electrode voltage-clamp of murine α4β1δ GABAA receptors expressed in Xenopus oocytes; assay type: cell-based, mouse
T1 construct: expressed in transfected cells; host or cells: Xenopus laevis oocytes, cDNA-injected (pRK5 vector), ratio 1:1:5
Protocol: (§1) Oocytes from Xenopus laevis toads were prepared as described. […] To obtain free oocytes, ovarian lobes were cut into pieces and incubated in OR2 (85 mM NaCl, 5 mM HEPES, 1 mM MgCl2, pH adjusted to 7.6 with KOH) supplemented with 2-2.5 mg/mL collagenase type 1 (Lorne Laboratories, Danehill, UK) for 3-4 hrs. Oocytes were washed several times in OR2 and subsequently in Barth’s solution (88 mM NaCl, 1 mM KCl, 0.33 mM Ca(NO3)2, 0.41 mM CaCl2, 0.82 mM MgSO4, 2.4 mM NaHCO3, 10 mM HEPES, pH adjusted to 7.6 with NaOH) to isolate cells and remove follicular membranes. After preparation, the oocytes were injected with 27 or 55 nL of 30 ng/μL cDNA in a ratio of 1:1 (α4β1) or 1:1:5 (α4β1δ). Oocytes were subsequently maintained at 18°C in Barth’s solution supplemented with gentamycin (Invitrogen, Paisley, UK).
(§2) Electrodes were filled with 3 M KCl and had resistances of 0.5 to 3 MΩ. The oocytes were clamped at a holding potential of -60 mV and were perfused with buffer (100 mM NaCl, 2 mM KCl, 2 mM CaCl2, 1 mM MgCl2, 5 mM HEPES, pH adjusted to 7.4 with NaOH) throughout the recordings. All currents were adjusted when necessary for voltage drop using equation 1:1 I=Imeasured⋅Vh−Vrev/Vh−Vrev+ΔV
(§3) Drugs were applied using a fast application system coupled to a small bath volume ([…]), enabling drug onset times of ~ 10 ms.
(§4) For each co-application, the peak-response was measured. […] All monophasic inhibition-curves were fitted to a modified version of equation 2.
Normalized responses were pooled and plotted as mean ± SEM from at least four different oocytes taken from at least two different Xenopus toads. For statistical evaluation, a repeated measures ANOVA with Dunnett’s post test was used. The significance level was set at *P < 0.05, **P < 0.01, ***P < 0.001. For inhibition curves, an F-test was performed to determine whether the data was either monophasic or biphasic.

α6β3δ receptors = conditions: cited from earlier work
α1β2γ2 receptors = conditions: steady-state GABA responses, HEK293 cells; cited from earlier work
α4β1 receptors = molecular target: T2, α4β1 receptors (Mus musculus, UniProt P50571+Q9D6F4); experiment: Two-electrode voltage-clamp of murine α4β1 GABAA receptors expressed in Xenopus oocytes; assay type: cell-based; conditions: for EC50: GABA-activated peak currents, oocytes clamped at -60 mV
T2 construct: expressed in transfected cells; host or cells: Xenopus laevis oocytes, cDNA-injected (pRK5 vector), ratio 1:1
Protocol: as §1, §2, §3, §4

α2β1γ2 receptors = conditions: Xenopus oocytes; cited from earlier work
[1] = inhibition of steady-state (desensitized) response after 70 s co-application with GABA EC75 (3 μM)
[2] = Hill coefficient of GABA concentration response curve
[3] = depending upon expression levels
[4] = inhibition of peak response to GABA EC20 after pre-application
[5] = inhibition of peak response to GABA EC75 (3 μM), 1 min pre-incubation
[6] = GABA EC75 (8 μM), biphasic inhibition

T1 sequence (Q9D6F4 36-552): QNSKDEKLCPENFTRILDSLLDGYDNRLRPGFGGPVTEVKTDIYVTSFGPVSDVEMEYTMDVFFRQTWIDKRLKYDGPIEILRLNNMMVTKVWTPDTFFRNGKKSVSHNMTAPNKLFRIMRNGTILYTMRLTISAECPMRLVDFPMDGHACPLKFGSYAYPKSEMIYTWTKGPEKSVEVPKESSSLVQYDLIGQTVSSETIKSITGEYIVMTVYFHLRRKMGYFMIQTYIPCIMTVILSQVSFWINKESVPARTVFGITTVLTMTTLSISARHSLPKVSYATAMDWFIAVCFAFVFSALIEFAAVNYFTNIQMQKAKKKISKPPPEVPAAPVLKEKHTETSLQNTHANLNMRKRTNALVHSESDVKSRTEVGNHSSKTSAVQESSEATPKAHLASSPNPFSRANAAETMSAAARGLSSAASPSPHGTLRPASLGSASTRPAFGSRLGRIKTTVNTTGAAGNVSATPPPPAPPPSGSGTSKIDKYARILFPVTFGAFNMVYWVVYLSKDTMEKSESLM
T1 sequence (P50571 26-474): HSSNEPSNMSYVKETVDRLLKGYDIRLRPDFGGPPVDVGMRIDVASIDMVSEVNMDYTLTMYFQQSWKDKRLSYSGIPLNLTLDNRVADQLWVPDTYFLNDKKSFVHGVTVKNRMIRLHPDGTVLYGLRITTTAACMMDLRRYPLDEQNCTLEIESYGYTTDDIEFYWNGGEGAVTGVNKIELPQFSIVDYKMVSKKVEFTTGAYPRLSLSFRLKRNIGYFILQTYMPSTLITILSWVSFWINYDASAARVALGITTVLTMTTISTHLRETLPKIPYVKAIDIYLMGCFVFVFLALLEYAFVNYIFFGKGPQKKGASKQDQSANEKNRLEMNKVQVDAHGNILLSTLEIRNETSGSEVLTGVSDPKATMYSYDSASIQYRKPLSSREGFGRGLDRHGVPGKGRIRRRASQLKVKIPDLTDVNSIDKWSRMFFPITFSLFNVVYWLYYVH
T1 sequence (P18506 17-449 limits assumed): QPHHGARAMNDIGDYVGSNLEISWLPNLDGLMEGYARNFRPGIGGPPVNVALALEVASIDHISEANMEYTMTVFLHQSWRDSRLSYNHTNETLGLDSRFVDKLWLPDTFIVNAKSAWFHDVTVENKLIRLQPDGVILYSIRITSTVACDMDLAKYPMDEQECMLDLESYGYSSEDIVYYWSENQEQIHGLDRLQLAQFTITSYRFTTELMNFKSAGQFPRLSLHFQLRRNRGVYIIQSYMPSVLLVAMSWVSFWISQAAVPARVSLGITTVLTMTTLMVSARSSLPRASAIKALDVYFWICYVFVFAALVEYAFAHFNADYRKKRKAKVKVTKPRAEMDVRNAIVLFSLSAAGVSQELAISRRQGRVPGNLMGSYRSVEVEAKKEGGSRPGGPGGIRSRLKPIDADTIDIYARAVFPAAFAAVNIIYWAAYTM
T2 sequence (Q9D6F4 36-552): as the sequence (Q9D6F4 36-552) above
T2 sequence (P50571 26-474): as the sequence (P50571 26-474) above

[Cl][Cu][Cl] [Cu^2+]
nH (± SEM) (α4β1δ receptors; Hill slope of inhibition curve, steady-state response, GABA EC75): −1.2 ± 0.13
maximal inhibition of desensitized GABA responses (α4β1δ receptors; at 10 μM, GABA EC75, oocytes): 98 % inhibition
IC50 (α4β1δ receptors; [1]): 820 nM
pIC50 ± SEM (α4β1δ receptors; [1]): 6.09 ± 0.04
maximal inhibition of the steady-state response (α6β3δ receptors; HEK293): ~ 68%
IC50 (α6β3δ receptors; steady-state GABA responses, HEK293 cells): 65 nM
IC50 (α1β2γ2 receptors): 85 µM

NCCCC(=O)O [GABA, γ-Aminobutyric acid]
nH (± SEM) (α4β1δ receptors; [2]): 1.1 and 1.1 ± 0.11
maximal currents to GABA (α4β1δ receptors; [3]): 300 to 3000 nA
EC50 (α4β1 receptors; read-out: EC50): 2700 nM
EC50 (α4β1 receptors; read-out: pEC50 ± SEM (converted)): 2750 nM
nH (± SEM) (α4β1 receptors; [2]): 0.87 and 0.87 ± 0.079
maximal currents to GABA (α4β1 receptors; [3]): 100 to 3000 nA

O=C(N/N=C/c1ccccc1O)c1ccccc1O [SCS, salicylidine salicylhydrazide]
steady-state level of inhibition (α4β1δ receptors; GABA EC20, incomplete inhibition of the GABA current): 67.2 ± 3.2 % of control
IC50 (α4β1δ receptors; [4]): 4.2 nM
pIC50 ± SEM (α4β1δ receptors; [4]): 8.37 ± 0.25
IC50 (α2β1γ2 receptors): 4.36 nM
maximum inhibition (α2β1γ2 receptors): ~ 33%

C[C@]12CC[C@@H](O)C[C@H]1CC[C@@H]1[C@@H]2CC[C@]2(C)[C@@H](C(=O)CO)CC[C@@H]12 [THDOC, tetrahydro-deoxycorticosterone]
potentiation of GABA peak-response (α4β1δ receptors; THDOC 30 and 100 nM co-applied with GABA EC7, P < 0.05): significantly increased; also recorded: significant increase; also recorded: able to potentiate

[Cl-].[Cl-].[Zn+2] [Zn^2+]
nH (± SEM) (α4β1δ receptors; Hill slope of inhibition curve, peak response, GABA EC75): −0.75 ± 0.041
potency shift in IC50 values, α4β1δ versus α4β1 (α4β1δ receptors; from low micromolar to mid nanomolar): approximately 60 fold
IC50 (α4β1δ receptors; [5]): 3300 nM
pIC50 ± SEM (α4β1δ receptors; [5]): 5.48 ± 0.03
share of the total inhibition, high potency component (IC50A) (α4β1 receptors; [6]): ~ 25%
share of the total inhibition, lower potency component (IC50B) (α4β1 receptors; [6]): ~ 75%
pIC50A ± SEM (α4β1 receptors; GABA EC75 (8 μM), high potency component of two-site fit): 9.87 ± 0.22
IC50 (α4β1 receptors; GABA EC75 (8 μM), high potency component of two-site fit, read-out: IC50A): 0.13 nM
pIC50B ± SEM (α4β1 receptors; GABA EC75 (8 μM), lower potency component of two-site fit): 7.25 ± 0.13
IC50 (α4β1 receptors; GABA EC75 (8 μM), lower potency component of two-site fit, read-out: IC50B): 56 nM
nH (± SEM) (α4β1 receptors; Hill slope of IC50B component, GABA EC75): -1.1 ± 0.13
